Measurements published in BindingDB's records for doi:10.7270/Q2KK9971 (Nmmlsc, 2009).

biological target: T1, GTPase KRas [1-37] (Homo sapiens, UniProt G3V5T7); experiment: Ras wild-type GTP-binding inhibitors, SAR follow-up, biochemical, pyrazoline analogs, multiplex bead flow cytometry (AID 2047); details: not given
T1 construct: 1-37
T1 sequence (G3V5T7 whole entry): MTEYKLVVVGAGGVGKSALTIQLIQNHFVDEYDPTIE

Structure (SMILES)	EC50 [µM]
NS(=O)(=O)c1ccc(N2N=C(c3ccccc3)CC2c2ccccc2)cc1 (stereo unspecified) [4-(3,5-diphenyl-3,4-dihydropyrazol-2-yl)benzenesulfonamide]	> 30
COc1ccc(C2=NN(c3ccc(S(N)(=O)=O)cc3)C(c3ccc(OC)cc3)C2)cc1 (stereo unspecified) [4-[3,5-bis(4-methoxyphenyl)-3,4-dihydropyrazol-2-yl]benzenesulfonamide]	> 30
NS(=O)(=O)c1ccc(N2N=C(c3ccccc3)CC2c2ccccc2Br)cc1 (stereo unspecified) [4-[3-(2-bromophenyl)-5-phenyl-3,4-dihydropyrazol-2-yl]benzenesulfonamide]	> 30
COc1ccccc1C1CC(c2ccccc2)=NN1c1ccc(S(N)(=O)=O)cc1 (stereo unspecified) [4-[3-(2-methoxyphenyl)-5-phenyl-3,4-dihydropyrazol-2-yl]benzenesulfonamide]	> 30
COc1cccc(C2CC(c3ccccc3)=NN2c2ccc(S(N)(=O)=O)cc2)c1 (stereo unspecified) [4-[3-(3-methoxyphenyl)-5-phenyl-3,4-dihydropyrazol-2-yl]benzenesulfonamide]	> 30
NS(=O)(=O)c1ccc(N2N=C(c3ccccc3)CC2c2ccc(Cl)cc2)cc1 (stereo unspecified) [4-[3-(4-chlorophenyl)-5-phenyl-3,4-dihydropyrazol-2-yl]benzenesulfonamide]	> 30
COc1ccc(C2CC(c3ccc(C(F)(F)F)cc3)=NN2c2ccc(S(N)(=O)=O)cc2)cc1 (stereo unspecified) [4-[3-(4-methoxyphenyl)-5-[4-(trifluoromethyl)phenyl]-3,4-dihydropyrazol-2-yl]benzenesulfonamide]	> 30
COc1ccc(C2CC(C)=NN2c2ccc(S(N)(=O)=O)cc2)cc1 (stereo unspecified) [4-[3-(4-methoxyphenyl)-5-methyl-3,4-dihydropyrazol-2-yl]benzenesulfonamide]	> 30
COc1ccc(C2CC(c3ccsc3)=NN2c2ccc(S(N)(=O)=O)cc2)cc1 (stereo unspecified) [4-[3-(4-methoxyphenyl)-5-thiophen-3-yl-3,4-dihydropyrazol-2-yl]benzenesulfonamide]	> 30
COc1ccc(C2CC(c3ccccc3Cl)=NN2c2ccc(S(N)(=O)=O)cc2)cc1 (stereo unspecified) [4-[5-(2-chlorophenyl)-3-(4-methoxyphenyl)-3,4-dihydropyrazol-2-yl]benzenesulfonamide]	> 30
COc1ccc(C2CC(c3cccc(F)c3)=NN2c2ccc(S(N)(=O)=O)cc2)cc1 (stereo unspecified) [4-[5-(3-fluorophenyl)-3-(4-methoxyphenyl)-3,4-dihydropyrazol-2-yl]benzenesulfonamide]	> 30
COc1ccc(C2CC(c3cccc(OC)c3)=NN2c2ccc(S(N)(=O)=O)cc2)cc1 (stereo unspecified) [4-[5-(3-methoxyphenyl)-3-(4-methoxyphenyl)-3,4-dihydropyrazol-2-yl]benzenesulfonamide]	> 30
NS(=O)(=O)c1ccc(N2N=C(c3ccc(Br)cc3)CC2c2ccc(F)cc2)cc1 (stereo unspecified) [4-[5-(4-bromophenyl)-3-(4-fluorophenyl)-3,4-dihydropyrazol-2-yl]benzenesulfonamide]	> 30
COc1ccc(-c2cc(-c3ccccc3)nn2-c2ccc(S(N)(=O)=O)cc2)cc1 [4-[5-(4-methoxyphenyl)-3-phenylpyrazol-1-yl]benzenesulfonamide]	> 30
COc1ccc(C2CC(C3CCCCC3)=NN2c2ccc(S(N)(=O)=O)cc2)cc1 (stereo unspecified) [4-[5-cyclohexyl-3-(4-methoxyphenyl)-3,4-dihydropyrazol-2-yl]benzenesulfonamide]	> 30
O=S(=O)(c1ccc(N2N=C(c3ccc(Br)cc3)CC2c2ccccc2)cc1)C(F)F (stereo unspecified) [5-(4-bromophenyl)-2-[4-(difluoromethylsulfonyl)phenyl]-3-phenyl-3,4-dihydropyrazole]	> 30

Structure (SMILES)	EC50 [µM]
FC(F)(F)c1ccccc1C1CC(c2ccc(Br)cc2)=NN1c1ccccc1 (stereo unspecified) [5-(4-bromophenyl)-2-phenyl-3-[2-(trifluoromethyl)phenyl]-3,4-dihydropyrazole]	> 30
O=[N+]([O-])c1cccc(C2C[C-](c3ccc(F)cc3)N=[N+]2c2ccccc2)c1 (stereo unspecified) [5-(4-fluorophenyl)-3-(3-nitrophenyl)-2-phenyl-3,4-dihydropyrazole]	> 30
Cc1ccc(-c2cc(C(F)(F)F)nn2-c2ccc(S(N)(=O)=O)cc2)cc1 [Celecoxib]	> 30
COc1ccc(C2CC(c3ccc(N(C)C)cc3)=NN2c2ccc(S(N)(=O)=O)cc2)cc1 (stereo unspecified) [KUC103422N]	> 30
COc1ccc(C2CC(c3cccs3)=NN2c2ccc(S(N)(=O)=O)cc2)cc1 (stereo unspecified) [KUC103438N]	> 30
NS(=O)(=O)c1ccc(N2N=C(c3ccccc3)CC2c2ccccc2Cl)cc1 (stereo unspecified) [KUC103446N]	> 30
COc1ccc(C2CC(C(C)(C)C)=NN2c2ccc(S(N)(=O)=O)cc2)cc1 (stereo unspecified) [KUC103450N]	> 30
COc1ccc(C2CC(c3ccccc3C(F)(F)F)=NN2c2ccc(S(N)(=O)=O)cc2)cc1 (stereo unspecified) [KUC103474N]	> 30
Cc1ccccc1N1N=C(c2ccccc2)CC1c1ccc(N(C)C)cc1 (stereo unspecified) [N,N-dimethyl-4-[2-(2-methylphenyl)-5-phenyl-3,4-dihydropyrazol-3-yl]aniline]	> 30
COc1ccc(C2CC(c3ccccc3)=NN2c2ccc(S(N)(=O)=O)cc2)cc1OC (stereo unspecified) [UNM-0000305823]	> 30
COc1ccc(C2CC(c3ccc(Br)cc3)=NN2c2ccccc2Cl)cc1 (stereo unspecified) [UNM-0000305832]	> 30
COc1ccc(C2=NN(c3ccccc3)C(c3ccc(Cl)cc3)C2)cc1 (stereo unspecified) [UNM-0000305833]	> 30
O=S(=O)(O)c1ccc(N2N=C(c3ccccc3)CC2c2ccccc2)cc1 (stereo unspecified) [UNM-0000305834]	> 30
Cc1cccc(N2N=C(c3ccccc3)CC2c2ccccc2)c1 (stereo unspecified) [UNM-0000305835]	> 30
O=[N+]([O-])c1ccc([N+]2=N[C-](c3ccccc3)CC2c2ccc(O)cc2)cc1 (stereo unspecified) [UNM-0000305838]	> 30

Next, values leading:

EC50 [µM]	Structure (SMILES)
> 30	Cc1onc(-c2ccccc2)c1-c1ccc(S(N)(=O)=O)cc1
> 30	O=[N+]([O-])c1ccc([N+]2=N[C-](c3ccccc3)CC2c2ccccc2)cc1 (stereo unspecified)
> 30	Brc1ccc(N2N=C(c3ccccc3)CC2c2ccccc2)cc1 (stereo unspecified)
> 30	COc1ccccc1C1CC(c2ccccc2)=NN1c1ccccc1 (stereo unspecified)
> 30	Clc1cccc(N2N=C(c3ccccc3)CC2c2ccccc2)c1 (stereo unspecified)
> 30	Clc1ccc(N2N=C(c3ccccc3)CC2c2ccccc2)cc1 (stereo unspecified)
> 30	CC(=O)Oc1ccc(C2=NN(c3ccccc3)C(c3ccccc3)C2)cc1 (stereo unspecified)
> 30	O=C(O)c1ccc(N2N=C(c3ccccc3)CC2c2ccccc2)cc1 (stereo unspecified)
> 30	O=S(=O)(c1ccc(N2N=C(c3ccccc3)CC2c2ccccc2)cc1)C(F)F (stereo unspecified)
> 30	CCc1ccc(C2=NN(c3ccc(S(N)(=O)=O)cc3)C(c3ccc(F)cc3)C2)cc1 (stereo unspecified)
> 30	CN(C)c1ccc(C2C[C-](c3ccccc3)N=[N+]2c2ccc([N+](=O)[O-])cc2)cc1 (stereo unspecified)
> 30	COc1ccc(C2CC(c3ccc(F)cc3)=NN2c2cccc(F)c2)cc1OC (stereo unspecified)
> 30	COc1ccc(C2CC(c3ccc(Cl)cc3)=NN2c2ccc(S(N)(=O)=O)cc2)cc1 (stereo unspecified)
> 30	Cc1ccc(C2CC(c3ccccc3)=NN2c2ccc(S(N)(=O)=O)cc2)cc1 (stereo unspecified)
> 30	Cc1cccc(C2CC(c3ccccc3)=NN2c2ccc(S(N)(=O)=O)cc2)c1 (stereo unspecified)
> 30	COc1ccc(C2CC(c3ccccc3OC)=NN2c2ccc(S(N)(=O)=O)cc2)cc1 (stereo unspecified)
> 30	COc1ccc(C2CC(c3ccc(C)cc3)=NN2c2ccc(S(N)(=O)=O)cc2)cc1 (stereo unspecified)
> 30	COc1ccc(C2CC(c3cccc(C(F)(F)F)c3)=NN2c2ccc(S(N)(=O)=O)cc2)cc1 (stereo unspecified)
> 30	COc1ccc(C2CC(c3cccc(N(C)C)c3)=NN2c2ccc(S(N)(=O)=O)cc2)cc1 (stereo unspecified)
> 30	COc1ccc(C2CC(c3cccnc3)=NN2c2ccc(S(N)(=O)=O)cc2)cc1 (stereo unspecified)
> 30	COc1ccc(C2CC(c3ccncc3)=NN2c2ccc(S(N)(=O)=O)cc2)cc1 (stereo unspecified)
> 30	Fc1ccccc1C1CC(c2ccc(Br)cc2)=NN1c1ccc(Br)cc1 (stereo unspecified) [2,5-bis(4-bromophenyl)-3-(2-fluorophenyl)-3,4-dihydropyrazole]
> 30	COc1ccc(C2CC(c3ccc(F)cc3)=NN2c2cc(Cl)ccc2Cl)cc1 (stereo unspecified) [2-(2,5-dichlorophenyl)-5-(4-fluorophenyl)-3-(4-methoxyphenyl)-3,4-dihydropyrazole]
> 30	COc1ccc(C2=NN(c3ccc(Cl)c(Cl)c3)C(c3ccc(OC)cc3)C2)cc1 (stereo unspecified) [2-(3,4-dichlorophenyl)-3,5-bis(4-methoxyphenyl)-3,4-dihydropyrazole]
> 30	Fc1ccc(C2=NN(c3cccc(Br)c3)C(c3ccccc3)C2)cc1 (stereo unspecified) [2-(3-bromophenyl)-5-(4-fluorophenyl)-3-phenyl-3,4-dihydropyrazole]
> 30	COc1ccc(C2=NN(c3cccc(F)c3)C(c3ccc(OC)cc3)C2)cc1 (stereo unspecified) [2-(3-fluorophenyl)-3,5-bis(4-methoxyphenyl)-3,4-dihydropyrazole]
> 30	COc1ccc(C2CC(c3ccccc3)=NN2c2ccc(Cl)c(C(=O)O)c2)cc1OC (stereo unspecified) [2-chloro-5-[3-(3,4-dimethoxyphenyl)-5-phenyl-3,4-dihydropyrazol-2-yl]benzoic acid]
> 30	COc1ccc(C2=NN(c3cccc(F)c3)C(c3ccc(Cl)cc3)C2)cc1 (stereo unspecified) [3-(4-chlorophenyl)-2-(3-fluorophenyl)-5-(4-methoxyphenyl)-3,4-dihydropyrazole]
> 30	COc1ccc(C2C[C-](c3ccccc3)N=[N+]2c2ccc([N+](=O)[O-])cc2)cc1 (stereo unspecified) [3-(4-methoxyphenyl)-2-(4-nitrophenyl)-5-phenyl-3,4-dihydropyrazole]
> 30	COc1ccc(C2CC(c3ccccc3)=NN2c2cccc(S(N)(=O)=O)c2)cc1 (stereo unspecified) [3-[3-(4-methoxyphenyl)-5-phenyl-3,4-dihydropyrazol-2-yl]benzenesulfonamide]

same assay, conditions: inactive by the depositor's call

EC50 [µM]	Structure (SMILES)
17.7	COc1ccc(C2=NN(c3ccccc3)C(c3ccccc3C(F)(F)F)C2)cc1 (stereo unspecified)
0.096	NS(=O)(=O)c1ccc(N2N=C(c3ccc(Cl)cc3)CC2c2ccccc2)cc1 (stereo unspecified)
1.03	COc1ccc(C2CC(c3ccccc3)=NN2c2ccc(Cl)c(C(=O)O)c2)cc1 (stereo unspecified)
0.049	CN(C)c1ccc(C2CC(c3ccccc3)=NN2c2ccccc2)cc1 (stereo unspecified) [4-(2,5-diphenyl-3,4-dihydropyrazol-3-yl)-N,N-dimethylaniline]
0.028	COc1ccc(C2CC(c3ccc(F)cc3)=NN2c2ccc(S(N)(=O)=O)cc2)cc1 (stereo unspecified) [4-[5-(4-fluorophenyl)-3-(4-methoxyphenyl)-3,4-dihydropyrazol-2-yl]benzenesulfonamide]
